Values after ≈ are worked out from the molar mass of the structure shown. Marks after values point to notes of the source that are not given here.
Tests used:
[1] = Effect of pH on CCG-211790 degradation; type: physicochemical; settings: for CCG-211790 concentration: 37°C; for chemical stability: twelve weeks
Procedure: The concentration of CCG-211790 in deionized water or aqueous solutions was determined using an Agilent series 1100 HPLC system (Agilent Technologies, Santa Clara, CA, USA) equipped with diode array detector. Sample separation was carried out with a Kinetex C18 column (75 mm × 3 mm, particle size 2.6 μm, Phenomenex Inc., Torrance, CA, USA). The mobile phase of acetonitrile-water (50:50, v/v) was used for chromatographic separation. The flow rate was set to 0.5 mL/min, column temperature to 35°C. The absorption was measured at wavelength 255 nm. The injection volume was 30 μL. The retention time of CCG-211790 was 4.9 min. The method detection limit was 0.02 mg/L. Calibration curves were established giving a correlation coefficient >0.9900. Effect of pH on CCG-211790 degradation was investigated at indicated pH (1–10) over a period of three months. Briefly, pH 1, 2 or 10 were achieved by dissolving CCG-211790 bulk powder in a mixture of acetonitrile and water (25:75, v/v) with the pH being adjusted with hydrochloride acid solution (12 mole/L) or sodium hydroxide solution (15 mole/L). Similarly, pH 3–9 were achieved by dissolving CCG-211790 powder in a mixture of acetonitrile and PBS (25:75, v/v) with the pH also being adjusted with the hydrochloride acid solution or the sodium hydroxide solution. All samples were incubated at 37°C. CCG-211790 concentrations in the mixture solutions were determined via HPLC analysis at predetermined time points (0, 2, 4 and 12 weeks).

Microsomal stability = type: in vitro ADME; settings: mouse liver microsomes, NADPH, 37°C; read-out: half-life in mouse liver microsomes (t1/2)
Procedure: Microsomal stability assay was performed as previously described. CCG-211790 (100 mM stock solution in DMSO) was diluted 1000-fold with phosphate-buffered saline (PBS) containing up to 10% MeOH as a co-solvent. Compound (100 μM) was added to 366 μL of 100 mM phosphate buffer containing 3.3 mM MgCl2 and 10 μL of 20 mg/mL mouse liver microsomal extract (XenoTech, Lenexa, KS, USA). Enzymatic oxidation was initiated by adding 15 μL of 16.7 mg/mL NADPH in 100 mM phosphate buffer containing 3.3 mM MgCl2. The reactions were carried out at 37°C for 60 min. Aliquots of the reaction mixture (30 μL) were sampled and the reaction was stopped by adding 90 μL cold acetonitrile containing an internal standard compound at each time point (0, 1, 3, 5, 10, 30, and 60 min). The quenched sample mixtures were centrifuged at 16,000 g for 10 min. The supernatant was then analyzed via an LC–MS/MS system equipped with a reverse-phase column.

[2] = Solubility in water containing sodium dodecyl sulfate (SDS); type: physicochemical; settings: aqueous with cosolvent or surfactant or cyclodextrin, thermodynamic from solid, 37°C; for solubility at 24 h / solubility at 48 h: 200 rpm; for solubility: mean of 24 and 48 h
Procedure: The concentration of CCG-211790 in deionized water or aqueous solutions was determined using an Agilent series 1100 HPLC system (Agilent Technologies, Santa Clara, CA, USA) equipped with diode array detector. Sample separation was carried out with a Kinetex C18 column (75 mm × 3 mm, particle size 2.6 μm, Phenomenex Inc., Torrance, CA, USA). The mobile phase of acetonitrile-water (50:50, v/v) was used for chromatographic separation. The flow rate was set to 0.5 mL/min, column temperature to 35°C. The absorption was measured at wavelength 255 nm. The injection volume was 30 μL. The retention time of CCG-211790 was 4.9 min. The method detection limit was 0.02 mg/L. Calibration curves were established giving a correlation coefficient >0.9900. The procedure to determine solubility in water with presence of SDS is based on the Paddle Method as described in the U.S. Pharmacopeia <711> on the in vitro dissolution tests with minor revision. To determine the saturation solubility in water containing SDS, CCG-211790 bulk powder was added in excess (around 5 mg of CCG-211790) to 10 mL of SDS solutions with various concentrations (0.5, 1.0 or 2.0% w/v). After incubation for 24–48 h in a shaking incubator at 37°C and 200 rpm to reach saturation status, aliquot (2 mL) of the incubated sample was filtered through a 0.22 μm Millipore filter (Millipore Corp., Billerica, MA, USA). Solutions passing through the filter were collected (0.5 mL) and were diluted 2-fold with acetonitrile. CCG-211790 concentration in SDS solutions was determined by HPLC analysis.

[3] = 0.5% (w/v) SDS solution, 0.5% (w/v) SDS
[4] = 1.0% (w/v) SDS solution, 1.0% (w/v) SDS
[5] = 2.0% (w/v) SDS solution, 2.0% (w/v) SDS

CCG-211790 concentration ([1]; pH 1, 0 week, acetonitrile/water): 11.1 µg/mL
CCG-211790 concentration ([1]; pH 1, 2 weeks, acetonitrile/water): 9.4 ^* μg/mL
CCG-211790 concentration ([1]; pH 1, 4 weeks, acetonitrile/water): 7.2 ^** μg/mL
CCG-211790 concentration ([1]; pH 1, 12 weeks, acetonitrile/water): 2.1 ^** μg/mL
chemical stability ([1]; pH 1, 37°C): degraded
CCG-211790 concentration ([1]; pH 2, 0 week, acetonitrile/water): 11.6 µg/mL
CCG-211790 concentration ([1]; pH 2, 2 weeks, acetonitrile/water): 11.9 µg/mL
CCG-211790 concentration ([1]; pH 2, 4 weeks, acetonitrile/water): 11.2 ^* μg/mL
CCG-211790 concentration ([1]; pH 2, 12 weeks, acetonitrile/water): 10.7 ^* μg/mL
chemical stability ([1]; pH 2–10, 37°C): maintained most chemical stability
CCG-211790 concentration ([1]; pH 3, 0 week, acetonitrile/PBS): 11.9 µg/mL
CCG-211790 concentration ([1]; pH 3, 2 weeks, acetonitrile/PBS): 11.9 µg/mL
CCG-211790 concentration ([1]; pH 3, 4 weeks, acetonitrile/PBS): 11.4 µg/mL
CCG-211790 concentration ([1]; pH 3, 12 weeks, acetonitrile/PBS): 11.7 µg/mL
CCG-211790 concentration ([1]; pH 4, 0 week, acetonitrile/PBS): 10.9 µg/mL
CCG-211790 concentration ([1]; pH 4, 2 weeks, acetonitrile/PBS): 11.4 µg/mL
CCG-211790 concentration ([1]; pH 4, 4 weeks, acetonitrile/PBS): 11.6 ^* μg/mL
CCG-211790 concentration ([1]; pH 4, 12 weeks, acetonitrile/PBS): 11.3 µg/mL
CCG-211790 concentration ([1]; pH 5, 0 week, acetonitrile/PBS): 11.0 µg/mL
CCG-211790 concentration ([1]; pH 5, 2 weeks, acetonitrile/PBS): 11.3 ^* μg/mL
CCG-211790 concentration ([1]; pH 5, 4 weeks, acetonitrile/PBS): 11.5 µg/mL
CCG-211790 concentration ([1]; pH 5, 12 weeks, acetonitrile/PBS): 11.2 µg/mL
CCG-211790 concentration ([1]; pH 6, 0 week, acetonitrile/PBS): 11.1 µg/mL
CCG-211790 concentration ([1]; pH 6, 2 weeks, acetonitrile/PBS): 11.4 µg/mL
CCG-211790 concentration ([1]; pH 6, 4 weeks, acetonitrile/PBS): 11.0 µg/mL
CCG-211790 concentration ([1]; pH 6, 12 weeks, acetonitrile/PBS): 10.1 µg/mL
CCG-211790 concentration ([1]; pH 7, 0 week, acetonitrile/PBS): 11.8 µg/mL
CCG-211790 concentration ([1]; pH 7, 2 weeks, acetonitrile/PBS): 11.2 ^* μg/mL
CCG-211790 concentration ([1]; pH 7, 4 weeks, acetonitrile/PBS): 10.9 ^* μg/mL
CCG-211790 concentration ([1]; pH 7, 12 weeks, acetonitrile/PBS): 11.5 µg/mL
CCG-211790 concentration ([1]; pH 8, 0 week, acetonitrile/PBS): 11.2 µg/mL
CCG-211790 concentration ([1]; pH 8, 2 weeks, acetonitrile/PBS): 11.2 µg/mL
CCG-211790 concentration ([1]; pH 8, 4 weeks, acetonitrile/PBS): 11.1 µg/mL
CCG-211790 concentration ([1]; pH 8, 12 weeks, acetonitrile/PBS): 11.6 µg/mL
CCG-211790 concentration ([1]; pH 9, 0 week, acetonitrile/PBS): 11.0 µg/mL
CCG-211790 concentration ([1]; pH 9, 2 weeks, acetonitrile/PBS): 11.3 ^* μg/mL
CCG-211790 concentration ([1]; pH 9, 4 weeks, acetonitrile/PBS): 11.2 µg/mL
CCG-211790 concentration ([1]; pH 9, 12 weeks, acetonitrile/PBS): 10.5 µg/mL
CCG-211790 concentration ([1]; pH 10, 0 week, acetonitrile/water): 10.4 µg/mL
CCG-211790 concentration ([1]; pH 10, 2 weeks, acetonitrile/water): 11.0 ^* μg/mL
CCG-211790 concentration ([1]; pH 10, 4 weeks, acetonitrile/water): 10.5 µg/mL
CCG-211790 concentration ([1]; pH 10, 12 weeks, acetonitrile/water): 10.7 ^* μg/mL
half-life (Microsomal stability): 19.6 min
solubility at 24 h [2, 3]: 32.9 µg/mL (≈ 85.6 µM)
solubility at 48 h [2, 3]: 26.8 µg/mL (≈ 69.7 µM)
solubility [2, 3]: 29.9 ± 4.3 µg/mL (≈ 77.8 µM)
solubility at 24 h [2, 4]: 68.5 µg/mL (≈ 178 µM)
solubility at 48 h [2, 4]: 63.8 µg/mL (≈ 166 µM)
solubility [2, 4]: 66.1 ± 3.3 µg/mL (≈ 172 µM)
solubility at 24 h [2, 5]: 161 µg/mL (≈ 420 µM)
solubility at 48 h [2, 5]: 150 µg/mL (≈ 389 µM)
solubility [2, 5]: 156 ± 8.3 µg/mL (≈ 405 µM)
Compound: COc1ccc2c(c1)-c1nc(SCC(F)(F)F)n(C)c(=O)c1C(C)(C)C2 [CCG-211790, 9-Methoxy-3,5,5-trimethyl-2-((2,2,2-trifluoroethyl)thio)-5,6-dihydrobenzo[h]quinazolin-4(3H)-one]
